Entries after “also recorded” stand apart in the source; their conditions may differ.
Key:
MRSA clinical isolates = assay: 8×8 broth microdilution checkerboard assays; format: cell-based, Staphylococcus aureus; conditions: MSSA and MRSA
From the text: Drug interaction networks in S. aureus, with drugs grouped according to their class (a) or targeted cellular process (b). Unique interactions across both strains tested are considered (i=331). Edge thickness represents the proportion of interactions for each node pair, considering all possible interactions given the number of drugs in each node. Nodes depict the drug class (a) or the targeted cellular process (b), and size is proportional to the number of drugs in the represented class/process. Only interacting drugs are considered (d=62). Synergies, antagonisms and nodes are colored according to FIG. 1. c. Novel and previously reported interactions detected in S. aureus. Interactions are considered known if reported in any S. aureus strain (Supplementary Table 4). d-e. Novel synergies are effective against MRSA clinical isolates in vitro (d) and in vivo in the G. mellonella infection model (e). […] The percentage of surviving larvae after treatment and in the untreated controls was monitored over time. […]
Combinations were tested in the same experimental conditions as for the screen, but at higher concentration resolution: drugs were diluted in eight concentrations spanning linearly-space gradients to assemble 8×8 checkerboards for each combination tested. […] Data was analyzed with the same pipeline as for the screen (Methods).

MRSA = conditions: ticagrelor 10 μg/mL combined with vancomycin 4 μg/mL; cited from earlier work
S. aureus USA300 = assay: Time-kill experiments; format: cell-based, Staphylococcus aureus; conditions: ticagrelor 5 μg/ml, gentamicin 1.5 μg/ml, plated every 30 minutes for 2 hours (FIG. 5d)
Description: Overnight cultures of S. aureus USA300 were diluted 1:100 in 20 ml of TSB medium, incubated for 1 h in flasks at 37° C. with continuous shaking and diluted again 1:100 in 20 ml prewarmed TSB with ticagrelor (5 μg/ml), gentamicin (1.5 μg/ml), their combination or without drugs. 50 μl of serial 10-fold dilutions of cultures were plated on TSA plates every 30 minutes for 2 hours. Cell viability was determined by counting CFUs after plates were incubated overnight in four independent experiments.

S. aureus Newman = assay: Cytochrome c binding assay (cell surface charge); format: cell-based, Staphylococcus aureus; conditions: ticagrelor 10 and 5 μg/ml for 20 minutes
Description: The cytochrome c binding assay was conducted as previously described (Radlinski, L. C. et al. Chemical Induction of Aminoglycoside Uptake Overcomes Antibiotic Tolerance and Resistance in Staphylococcus aureus. Cell Chem Biol 26, 1355-1364.e4 (2019)). Briefly, overnight cultures of S. aureus Newman were diluted 1:1000 in 20 ml of TSB medium and grown in flasks at 37° C. with continuous shaking until they reached OD578 nm˜0.45. Samples were then incubated in the same conditions with or without 10 and 5 μg/ml ticagrelor for 20 minutes. Samples were centrifuged at 10000 g for 15 minutes, washed twice with 20 mM MOPS buffer (pH 7) and concentrated to reach a final A578 of 10 in a 96 well-plate (ref. 4483481, Applied Biosystems™) containing cytochrome c (0.25 mg/ml, ref. 101467, MP Bio) or MOPS buffer (FIG. 5g). The plate was incubated in the dark at room temperature for 10 minutes. The cell pellets were collected, and the amount of cytochrome c in the supernatant was determined spectrophotometrically at an OD410 nm. Two-fold dilutions of cytochrome c in the same plate, starting from 256 μg/ml, were used to obtain a standard curve onto which a linear model was fitted to calculate cytochrome c concentrations in the other wells. Results are expressed as unbound cytochrome c fraction in the supernatants. Experiments were conducted in four biological replicates.

In the case of `CCCSc1nc(N[C@@H]2C[C@H]2c2ccc(F)c(F)c2)c2nnn([C@@H]3C[C@H](OCCO)[C@@H](O)[C@H]3O)c2n1` [ticagrelor], the “interaction with gentamicin at growth inhibition level” value (MRSA clinical isolates; MRSA isolate resistant to tigecycline (FIG. 5c), ticagrelor combined with gentamicin) is listed as “sensitized; also recorded: synergizes”, the “sensitization to cationic peptide nisin” value (MRSA clinical isolates; ticagrelor combined with nisin) is listed as “sensitized” and the “initial MRSA inoculum killed” value (MRSA) is listed as “approximately 50%”. For the same compound, the “interaction with gentamicin at killing level (CFU over time)” value (S. aureus USA300) was “evident”, the “interaction with gentamicin at killing level (CFU over time)” value (S. aureus USA300; listed as Ticagrelor) was “synergizes” and the “binding of positively-charged cytochrome C to intact S. aureus cells” value (S. aureus Newman) was “increased”.

Reference: patent publication US20260102460A1, “NOVEL COMBINATIONS OF ANTIBIOTICS AND NON-ANTIBIOTIC DRUGS EFFECTIVE IN VIVO AGAINST GRAM-POSITIVE BACTERIA, IN PARTICULAR METHICILLIN-RESISTANT S. AUREUS (MRSA)” (EUROPEAN MOLECULAR BIOLOGY LABORATORY, priority 2022, published 2026)
